Laboratory results as given in the supplement of paper PMC10307832.

Experiments:
Assay in all cases: relative viability (nuclei count vs DMSO), 5 days (fraction); higher = more cells survive
EHT 1864 + Linsitinib = compound: C1COCCN1CC2=CC(=O)C(=CO2)OCCCCCSC3=C4C=CC(=CC4=NC=C3)C(F)(F)F [EHT 1864] + C[C@]1(O)C[C@@H](c2nc(-c3ccc4ccc(-c5ccccc5)nc4c3)c3c(N)nccn32)C1 [Linsitinib] (partner 1 µM)
Method in brief: (§1)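 One day after seeding in 1536-well plates, lung cancer cell lines were dosed by pin tool. Dosing was either single-drug or a fixed anchor-drug dose plus five library-drug doses (not always all listed) in √10 steps. After 5 days, nuclei were stained in one fix-and-stain step and counted on 4× images, and relative viability is the nuclei count of treated wells over that of vehicle wells, given as the median of duplicate plates.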

EHT 1864 + Pemetrexed = compound: C1COCCN1CC2=CC(=O)C(=CO2)OCCCCCSC3=C4C=CC(=CC4=NC=C3)C(F)(F)F [EHT 1864] + Nc1nc2[nH]cc(CCc3ccc(C(=O)N[C@@H](CCC(=O)O)C(=O)O)cc3)c2c(=O)[nH]1 [Pemetrexed] (partner 0.2 µM)
Method in brief: as §1

EHT 1864 + Vorinostat = compound: C1COCCN1CC2=CC(=O)C(=CO2)OCCCCCSC3=C4C=CC(=CC4=NC=C3)C(F)(F)F [EHT 1864] + O=C(CCCCCCC(=O)Nc1ccccc1)NO [Vorinostat] (partner 1 µM)
Method in brief: as §1

EHT 1864 + Olaparib = compound: C1COCCN1CC2=CC(=O)C(=CO2)OCCCCCSC3=C4C=CC(=CC4=NC=C3)C(F)(F)F [EHT 1864] + O=C(c1cc(Cc2n[nH]c(=O)c3ccccc23)ccc1F)N1CCN(C(=O)C2CC2)CC1 [Olaparib] (partner 8 µM)
Method in brief: as §1

Cell Line	relative viability (EHT 1864 + Linsitinib; first compound 0.04 µM)	relative viability (EHT 1864 + Linsitinib; first compound 0.4 µM)	relative viability (EHT 1864 + Linsitinib; first compound 1.265 µM)	relative viability (EHT 1864 + Linsitinib; first compound 4 µM)	relative viability (EHT 1864 + Pemetrexed; first compound 0.04 µM)	relative viability (EHT 1864 + Pemetrexed; first compound 0.1265 µM)	relative viability (EHT 1864 + Pemetrexed; first compound 0.4 µM)	relative viability (EHT 1864 + Pemetrexed; first compound 1.265 µM)	relative viability (EHT 1864 + Pemetrexed; first compound 4 µM)	relative viability (EHT 1864 + Vorinostat; first compound 0.04 µM)	relative viability (EHT 1864 + Vorinostat; first compound 0.1265 µM)	relative viability (EHT 1864 + Vorinostat; first compound 0.4 µM)	relative viability (EHT 1864 + Vorinostat; first compound 1.265 µM)	relative viability (EHT 1864 + Vorinostat; first compound 4 µM)	relative viability (EHT 1864 + Olaparib; first compound 0.04 µM)	relative viability (EHT 1864 + Olaparib; first compound 0.1265 µM)	relative viability (EHT 1864 + Olaparib; first compound 0.4 µM)	relative viability (EHT 1864 + Olaparib; first compound 1.265 µM)	relative viability (EHT 1864 + Olaparib; first compound 4 µM)	relative viability (EHT 1864 + Linsitinib; first compound 0.1265 µM)
HCC-366	0.647	0.699	0.598	0.522	0.159	0.145	0.136	0.15	0.152	0.336	0.0895	0.312	0.327	0.337	0.391	0.325	0.34	0.347	0.304	
HCC-827	0.953	1.01	0.926	0.876	0.279	0.27	0.227	0.3	0.235	0.932	0.59	0.843	0.96	0.602	0.79	0.641	0.625	0.652	0.633	0.858
HOP-62	1.13	0.865	0.943	1.03	0.438		0.269	0.388	0.314	0.631		0.616	0.676	0.667	0.448		0.435	0.438	0.453	
IA-LM	0.524	0.572	0.463	0.644						0.917		0.853	0.946	1.24	0.926	0.842	0.81	0.62	0.618	0.325
LC-2-ad	0.862	0.806	0.804	0.79	0.265	0.271	0.247	0.274	0.308	0.659	0.432	0.677	0.648	0.625	0.602	0.671	0.657	0.671	0.625	
LCLC-97TM1	0.202	0.148	0.168	0.233	0.205	0.15	0.169	0.185	0.15	0.848	0.509	0.813	0.613	0.74	0.347	0.346	0.328	0.326	0.444	
LCLC-103H	1.12	1.01	1.09	1.39	0.431	0.45	0.506	0.468	0.5	0.758	0.666	0.791	0.779	0.712	0.742	0.694	0.739	0.718	0.734	0.83
LK-2	0.543	0.538	0.623	0.724	0.305		0.259	0.288	0.25	0.312	0.265	0.206	0.253	0.284	0.518	0.608	0.608	0.551	0.68	0.527
LOU-NH91	0.975	1.06	1.1	0.767	0.347	0.382	0.396	0.421	0.391	0.924	0.799	1.02	0.876	0.856	0.917	0.858	0.911	0.949	0.885	0.875
